Test results taken from paper PMC10812665, “Definition of the Neurotoxicity-Associated Metabolic Signature Triggered by Berberine and Other Respiratory Chain Inhibitors” (Antioxidants, 2023).

Biological target: T1, purified pig brain tubulin (Sus scrofa, UniProt P02550+P02554)
T1 construct: native alpha/beta-tubulin purified from pig brain
Test: tubulin polymerization, absorbance […] nm
Assay type: biochemical

T1 sequence (P02554 whole entry): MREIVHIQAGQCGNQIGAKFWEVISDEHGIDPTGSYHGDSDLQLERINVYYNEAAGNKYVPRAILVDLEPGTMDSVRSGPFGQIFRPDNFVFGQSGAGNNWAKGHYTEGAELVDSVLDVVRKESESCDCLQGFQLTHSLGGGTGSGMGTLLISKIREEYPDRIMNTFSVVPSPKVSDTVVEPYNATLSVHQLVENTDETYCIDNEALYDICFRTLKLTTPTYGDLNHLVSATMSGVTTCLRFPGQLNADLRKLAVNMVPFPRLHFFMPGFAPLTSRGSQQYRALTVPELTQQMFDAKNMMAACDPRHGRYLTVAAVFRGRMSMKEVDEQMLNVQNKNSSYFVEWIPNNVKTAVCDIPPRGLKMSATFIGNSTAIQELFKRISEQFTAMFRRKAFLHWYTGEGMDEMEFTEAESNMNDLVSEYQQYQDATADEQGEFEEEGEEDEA
T1 sequence (P02550 whole entry): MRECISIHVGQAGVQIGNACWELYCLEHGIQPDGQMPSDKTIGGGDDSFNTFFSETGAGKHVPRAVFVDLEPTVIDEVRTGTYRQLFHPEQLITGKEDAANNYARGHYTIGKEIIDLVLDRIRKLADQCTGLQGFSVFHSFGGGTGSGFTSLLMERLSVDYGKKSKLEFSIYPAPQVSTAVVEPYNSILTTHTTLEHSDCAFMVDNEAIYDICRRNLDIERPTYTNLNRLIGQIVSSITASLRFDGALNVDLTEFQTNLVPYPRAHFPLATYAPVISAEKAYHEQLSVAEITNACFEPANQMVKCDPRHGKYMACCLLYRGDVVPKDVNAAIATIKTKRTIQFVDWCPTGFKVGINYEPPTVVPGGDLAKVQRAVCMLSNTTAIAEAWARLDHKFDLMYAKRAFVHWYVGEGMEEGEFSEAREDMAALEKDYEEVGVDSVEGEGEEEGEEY

C=C(C)[C@H]1Cc2c(ccc3c2O[C@@H]2COc4cc(OC)c(OC)cc4[C@@H]2C3=O)O1 [Rot, rotenone]
EC50: 640 nM
